Measured values published in patent publication US5661156A, “Rapamycin derivatives” (SmithKline Beecham Corporation, priority 1995, dated 1997).

What was measured:
Saccharomyces cerevisiae = experiment: Assay for Antifungal Activity (zones of inhibition on agar); format: cell-based; conditions: YPD agar wells, 48 hours
Experimental: Assay for Antifungal Activity
Yeast organism (Saccharomyces cerevisiae) in logarithmic growth were plated on complete agar medium (YPD). Compounds dissolved in an appropriate aqueous or organic solvent were placed in wells punched in the agar. Plates were incubated for 48 hours and zones of inhibition were measured.
(§1) Mitogenesis Assay for Immunosuppressive Activity

[1] = test system: Spleen cells from BDF1 female mice; experiment: Mitogenesis Assay for Immunosuppressive Activity (concanavalin A, 3H-thymidine); format: cell-based; conditions: BDF1 mouse spleen cells, Concanavalin A 5 μg/ml, 72 hours, 3H-thimidine last 18 hours
Experimental: as §1
Spleen cells from BDF1 female mice were established in RPMI with 10% fetal calf serum at 5×10^6 /mL. One hundred […] of this suspension (5×10^5 cells) were dispensed into 96-well round-bottomed microtiter plates (Linbro, Flow Laboratories). Concanavalin A (5 μg/ml)was added as the mitogenic stimulus, and the final volume in the microtiter wells was adjusted to 200 μL with RPMI. Cell cultures were incubated for 72 hours at 37° C. in a 5% CO2 atmosphere and pulsed with 0.5 μCi ^3 H-thymidine (specific activity […]) for the last 18 hours of the 72 hour culture. The cells were harvested on an automated multiple sample harvester and cell-associated radioactivity counted in a Beckman liquid scintillation counter. The results are expressed as the mean values derived from quadruplicate measurements. Cell viability was determined by trypan blue exclusion after 72 hours of incubation. Compounds to be tested were added to the microtiter plates at the appropriate dilutions prior to the addition of cells.

14-Desoxo-13-Methoxy-Rapamycin
Yeast IC12 (Saccharomyces cerevisiae): 52 ng/mL | IC50 [1]: 1000 nM

CO[C@H]1CCC[C@@H](C[C@@H](C)[C@@H]2CC(=O)[C@H](C)/C=C(\C)[C@@H](O)[C@@H](OC)C(=O)[C@H](C)C[C@H](C)/C=C/C=C/C=C(\C)[C@@H](OC)C[C@@H]3CC[C@@H](C)[C@@](O)(O3)C(=O)C(=O)N3CCCC[C@H]3C(=O)O2)C1 [Example 1, 43-Deshydroxyrapamycin]
IC50 [1]: 0.5 nM

CO[C@H]1C[C@@H]2CC[C@@H](C)[C@](O)(CC(=O)N3CCCC[C@H]3C(=O)O[C@H]([C@H](C)C[C@@H]3CC[C@@H](O)[C@H](OC)C3)CC(=O)[C@H](C)/C=C(\C)[C@@H](O)[C@@H](OC)C(=O)[C@H](C)C[C@H](C)/C=C/C=C/C=C/1C)O2 [Example 3, 14-Deoxorapamycin]
IC50 [1]: 15 nM
